“Also recorded” adds a separate entry of the source. Like-named read-outs stand apart in the source and are kept apart here. Ends that are not written are not given here.
Experiments:
[1] = target: T1, WT-HBc capsids (hepatitis B core protein) (Hepatitis B virus genotype D subtype ayw, UniProt P03146); assay type: binding, Hepatitis B virus (genotype D; strain ayw); conditions: for KD: N-terminally unmodified, terminally amidated peptides, dnb = did not bind HBc, SLLGRM fitted with stoichiometry fixed to 0.25
T1 construct: these predictions are also valid for full-length variants with randomly packaged host–RNA; made in house; host or cells: E. coli BL21 (DE3) Star

[2] = tested on: WT-HBc capsids; conditions: GRMKG added at 10-fold molar excess; SLLGRM sample taken at the end of the ITC experiment (more than 95% of binding sites occupied)
[3] = target: P5T-HBc capsids (Hepatitis B virus genotype D subtype ayw, UniProt P03146, P5T); assay: Isothermal titration calorimetry (ITC) of peptide binding to P5T-HBc capsids; set-up: species or system Hepatitis B virus (genotype D; strain ayw); conditions: 20 °C, ITC buffer 2, mean ± SD of 6 repeats
[4] = target: F97L-HBc capsids (Hepatitis B virus genotype D subtype ayw, UniProt P03146, F97L); assay: Isothermal titration calorimetry (ITC) of peptide binding to F97L-HBc capsids; set-up: species or system Hepatitis B virus (genotype D; strain ayw); conditions: 20 °C, ITC buffer 2, mean ± SD of 5 repeats
[5] = target: L60V-HBc capsids (Hepatitis B virus genotype D subtype ayw, UniProt P03146, L60V); assay: Isothermal titration calorimetry (ITC) of peptide binding to L60V-HBc capsids; set-up: species or system Hepatitis B virus (genotype D; strain ayw); conditions: 20 °C, ITC buffer 2, stoichiometry fixed to 0.5, mean ± SD of 3 repeats
[6] = for solubility (soluble up to): no buffer stated at this place, peptides were dissolved in ITC dialysis buffer, pH 7.5
[7] = ITC, 20 °C, ITC buffer 2, single repeat, ± fit error
[8] = ITC, 20 °C, ITC buffer 2, mean ± SD of 6 repeats
[9] = ITC, 37 °C, ITC buffer 1, single repeat, ± fit error

GRMKG
KD [1, 7]: no measurable affinity and dnb | association of peptide with capsids in the cryo-EM map [2]: no association

CSCC[C@H](NC(=O)[C@H](CCCNC(=N)N)NC(=O)CNC(=O)[C@H](CC(C)C)NC(=O)[C@H](CC(C)C)NC(=O)[C@H](CO)NC(=O)CN)C(=O)N[C@@H](CCCCN)C(=O)NCC(=O)N[C@@H](C)C(N)=O [P2]
∆H [1, 8]: -14.4 ± 1.6 kcal/mol | ∆ST [1, 8]: -8.8 ± 1.6 kcal/mol | ∆H [3]: -7.7 ± 0.8 kcal/mol | ∆ST [3]: -2.1 ± 0.9 kcal/mol | ∆H [4]: -9.9 ± 1.0 kcal/mol | ∆ST [4]: -4.7 ± 0.9 kcal/mol | ∆H [5]: -6.6 ± 1.2 kcal/mol | ∆ST [5]: -1.4 ± 1.3 kcal/mol | solubility compared with the other peptide, in words ([6]; P2 compared with the longer P1): better soluble | solubility (soluble up to) [6]: up to 8 mM

SLLGRM-NH2 [SLLGRM]
∆ST ([1]; ITC, 20 °C, ITC buffer 2, stoichiometry fixed to 0.25, single repeat): -3.2 kcal/mol | ∆H ([1]; ITC, 20 °C, ITC buffer 2, stoichiometry fixed to 0.25, single repeat, ± fit error): -8.3 ± 0.2 kcal/mol | association of peptide with capsids in the cryo-EM map [2]: only the CD spikes bound

CSCC[C@H](NC(=O)[C@H](CCCNC(=N)N)NC(=O)CNC(=O)[C@H](CC(C)C)NC(=O)[C@H](CC(C)C)NC(=O)[C@H](CO)NC(=O)[C@H](CCCNC(=N)N)NC(=O)[C@H](Cc1c[nH]cn1)NC(=O)[C@@H](N)CCSC)C(=O)N[C@@H](CCCCN)C(=O)NCC(=O)N[C@@H](C)C(N)=O [P1]
∆ST ([1]; ITC, 37 °C, ITC buffer 1, single repeat): -2.5 kcal/mol | Ratio Peptide/HBc [1, 9]: 0.45 ± 0.02 | ∆H [1, 9]: -9.0 ± 0.6 kcal/mol | aggregation of HBc capsids caused by the peptide ([1]; in words, endothermic contribution at higher P1 concentrations in ITC (37 °C, ITC buffer 1) attributed to aggregation): aggregation of P1 and capsids; also recorded: causes aggregation of HBc capsids | solubility (soluble up to) [6]: up to 8 mM

SLLGEM
KD [1, 7]: no binding detected and dnb

SLKGRM
KD [1, 7]: no binding detected and dnb

Source: PMC8145704, “Conformational Plasticity of Hepatitis B Core Protein Spikes Promotes Peptide Binding Independent of the Secretion Phenotype” (Microorganisms, 2021)
